According to US10501479B2, “Benzenesulfonyl-asymmetric ureas and medical uses thereof” (HELSINN HEALTHCARE SA, priority 2016, dated 2019):

Target: T1, GHSR-1a (HEK293/GHSR1a cell line) (Homo sapiens, UniProt Q92847)
T1 construct: expressed in transfected cells; host or cells: HEK293/GHSR1a cell line
Assay: Ghrelin antagonist potency (IC50) with calcium FLIPR assay, ghrelin 10 nM
Type: cell-based
Conditions: ghrelin antagonist potency, read-out: IC50 (Activity)
Experimental: Evaluation of Ghrelin Agonist (EC50) and Antagonist Potency (IC50) with Calcium FLIPR Assay:
The intracellular calcium assay was carried out in a 384-well format FLIPR™ (Molecular Device) HEK293/GHSR1a cell line. Cells were seeded 24 hr prior to the experiments at an optimal density per well. Preincubation with selected calcium dye lasted for 30-60 min at room temperature or 37° C. Test compounds, dissolved in DMSO, were added at the appropriate time and incubated for 15 min followed by the addition of ghrelin with FlexStation or FLIPR. Relative fluorescence was monitored by the FLIPR™ Molecular Device. EC50 and IC50 values were estimated from dose-response data using GraphPad Prism software. To check for GHSR-1a agonism, the compound was added at t=20 sec. and the calcium response was followed for 2 minutes. To check for GHSR-1a antagonism, the compound and Ghrelin (10 nM) were added to the cells at t=20 sec. and the calcium response was measured for 2 minutes. The potency of the antagonist was calculated by its ability to reduce the ghrelin response. Dose-response curves were made for relevant antagonists.

T1 sequence (Q92847 whole entry): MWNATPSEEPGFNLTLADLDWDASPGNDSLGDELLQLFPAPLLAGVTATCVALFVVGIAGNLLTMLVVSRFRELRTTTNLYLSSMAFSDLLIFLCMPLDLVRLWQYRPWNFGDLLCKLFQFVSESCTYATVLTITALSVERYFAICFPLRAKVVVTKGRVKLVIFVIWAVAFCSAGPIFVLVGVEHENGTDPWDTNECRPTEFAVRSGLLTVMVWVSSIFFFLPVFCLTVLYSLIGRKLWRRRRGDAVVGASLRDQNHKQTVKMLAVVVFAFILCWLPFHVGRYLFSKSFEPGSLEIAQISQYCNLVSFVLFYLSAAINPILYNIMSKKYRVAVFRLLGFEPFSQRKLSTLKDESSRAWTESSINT

Row | SMILES | IC50
1 | COc1ccc(C(C)NC(=O)Nc2ccc(S(=O)(=O)Cc3ccc(CO)cc3)cc2)c2ccccc12 (stereo not shown) [H1140, 1-(4-((4-(hydroxymethyl)benzyl)sulfonyl)phenyl)-3-(1-(4-methoxynaphthalen-1-yl)ethyl)urea] | ≥ 30 µM
2 | COc1ccc(C(C)NC(=O)Nc2ccc(S(=O)(=O)Nc3ccc(CO)cc3)cc2)c2ccccc12 (stereo not shown) [H1145, N-(4-(hydroxymethyl)phenyl)-4-(3-(1-(4-methoxynaphthalen-1-yl)ethyl)ureido) benzenesulfonamide] | ≥ 30 µM
3 | C[C@H](NC(=O)N(O)c1ccc(S(=O)(=O)Nc2ccc3c(c2)CNC3)cc1)c1cccc(Cl)c1Cl [H1188, (S)-4-(3-(1-(2,3-dichlorophenyl)ethyl)-1-hydroxyureido)-N-(isoindolin-5-yl)benzenesulfonamide] | 0.539 µM
4 | C[C@H](NC(=O)Nc1ccc(S(=O)(=O)Cc2ccc(CO)cc2)cc1)c1ccccc1 [H1222, (S)-1-(4-((4-(hydroxymethyl)benzyl)sulfonyl)phenyl)-3-(1-phenylethyl)urea] | 3.16 µM
5 | C[C@H](NC(=O)Nc1ccc(S(=O)(=O)N2CCN(C)CC2)cc1)c1ccccc1 [H1225, (S)-1-(4-((4-methylpiperazin-1-yl)sulfonyl)phenyl)-3-(1-phenylethyl)urea] | 5.9 µM
6 | CC(NC(=O)Nc1ccc(S(=O)(=O)C(C)(C)c2ccc3c(c2)CN(Cc2ccccc2)C3)cc1)c1ccccc1 (stereo not shown) [H1231, 1-(4-((2-(2-benzylisoindolin-5-yl)propan-2-yl)sulfonyl)phenyl)-3-(1-phenylethyl)urea] | > 30 µM
7 | C[C@H](NC(=O)Nc1ccc(S(=O)(=O)C2CCN(C)CC2)cc1)c1ccccc1 [H1237, (S)-1-(4-((1-methylpiperidin-4-yl)sulfonyl)phenyl)-3-(1-phenylethyl)urea] | > 30 µM
8 | C[C@H](NC(=O)Nc1ccc(S(=O)(=O)CC2CCN(C)CC2)cc1)c1ccccc1 [H1238, (S)-1-(4-(((1-methylpiperidin-4-yl)methyl)sulfonyl)phenyl)-3-(1-phenylethyl)urea] | > 30 µM
9 | C[C@H](NC(=O)Nc1ccc(S(=O)(=O)NC2CCN(C)CC2)cc1)c1ccccc1 [H1239, (S)-N-(1-methylpiperidin-4-yl)-4-(3-(1-phenylethyl)ureido) benzenesulfonamide] | > 30 µM

Continued, values first:

Row | IC50 | SMILES
10 | 0.0757 µM | CC(NC(=O)N(O)c1ccc(S(=O)(=O)Nc2ccc3c(c2)CNC3)cc1)c1ccccc1 (stereo not shown) [H1199, 4-(1-hydroxy-3-(1-phenylethyl)ureido)-N-(isoindolin-5-yl)benzenesulfonamide]
11 | > 30 µM | O=C(NCc1cncs1)Nc1ccc(S(=O)(=O)Cc2ccc3c(c2)CNC3)cc1 [H1208, 1-(4-((isoindolin-5-ylmethyl)sulfonyl)phenyl)-3-(thiazol-5-ylmethyl)urea]
12 | 4.35 µM | CC(NC(=O)N(C)c1ccc(S(=O)(=O)Cc2ccc3c(c2)CNC3)cc1)c1ccccc1 (stereo not shown) [H1213, 1-(4-((isoindolin-5-ylmethyl)sulfonyl)phenyl)-1-methyl-3-(1-phenylethyl)urea]
13 | 8.45 µM | O=C(NCc1cscn1)Nc1ccc(S(=O)(=O)Cc2ccc3c(c2)CNC3)cc1 [H1216, 1-(4-((isoindolin-5-ylmethyl)sulfonyl)phenyl)-3-(thiazol-4-ylmethyl)urea]
14 | 6.4 µM | CN1Cc2ccc(CS(=O)(=O)c3ccc(NC(=O)NCC4CC4)cc3)cc2C1 [H1230, 1-(cyclopropylmethyl)-3-(4-(((2-methylisoindolin-5-yl)methyl)sulfonyl)phenyl)urea]
15 | 0.283 µM | CCc1ccc(Cl)c(C(=O)NC(=O)Nc2ccc(S(=O)(=O)Cc3ccc4c(c3)CNC4)cc2)c1 [H1248, 2-chloro-5-ethyl-N-((4-((isoindolin-5-ylmethyl)sulfonyl)phenyl)carbamoyl)benzamide]
16 | 1.37 µM | O=C(NC(=O)c1cc(N2CCOCC2)ccc1Cl)Nc1ccc(S(=O)(=O)Nc2ccc3c(c2)CNC3)cc1 [H1250, 2-chloro-N-((4-((isoindolin-5-yl)sulfamoyl)phenyl)carbamoyl)-5-morpholinobenzamide]
